# Laboratory results reported in patent US7070807B2, “Branched histidine copolymers and methods for using same” (priority 1999, dated 2006).
# Ends that are not written are not given here.
# How the values were obtained:
# [1] = system: NIH-3T3 cells; assay: In vitro transfection with polymer:liposome:PCI-Luc complexes, luciferase activity; format: cell-based
# Method: (§1) 4.5×10^4 cells (MDA-MB-435, NIH3T3 or CHO) were initially plated into 24 well dishes. After 48 hours, when the cells were 60 and 80% confluent, cells were transfected with a plasmid encoding luciferase (PCI-Luc). In transfection experiments, the copolymer was initially incubated with PCI-Luc for 30 minutes in OptiM. The amount of copolymer which varied from 0.25 nmole to 15 nmole was mixed with the plasmid or oligonucleotide. The concentration of DNA varied from 0.25 μg to 0.75 μg. No visible aggregation of the polymer with the plasmid DNA was apparent at these concentrations. Cationic liposomes were then added, gently mixed, and then allowed to stand for an additional 30 minutes. The polymer:liposome:DNA complex was then diluted with either OptiM or OptiM+10% serum. In experiments utilizing lysomotropic agents, either chloroquine (Sigma, St. Louis, Mo.) or bafilomycin Al (Sigma) was added to the media at concentrations of 10 ng/ml and 25 μM, respectively. Four hours after transfection, the complexes were removed and DMEM with 10% serum was added. Forty-eight hours later, luciferase levels were measured with the Turner 20/20 luminometer. Duplicates were done for each concentration and each experiment was performed twice.
# [2] = system: CHO cells; assay: as above; format: cell-based, Chinese hamster
# Method: as §1
# [3] = Effect of adding transition metal on transfection efficiency of polymer:liposome:DNA complexes; format: cell-based; settings: Zn2+ 0 to 2.00 μg/ml added to H-K2b, H-K3b or H-K4b:liposome:DNA
# Method: To determine the effect of adding transition metals on the transfection efficiency of a polymer:DNA complex, 0.25 μg H-K2b, 0.125 μg H-K3b, or 0.125 μg H-K4b were initially mixed with 0.75 μg DNA. After 30 minutes, cationic liposomes were added for 30 minutes. Zn^2+ was then added in an amount ranging from 0 to 2.00 μg/ml. As a control, various amounts of zinc were added to the liposome:DNA complex.
# [4] = system: MDA-MB-435 cells; assay: In vitro transfection with polymer:liposome:PCI-Luc complexes, luciferase activity; format: cell-based, human; settings: for transfection efficiency compared to H-K (19-mer): polymer:liposome:PCI-Luc; for transfection efficiency of the liposome: PCI-Luc complex, polymer vs no polymer (length comparison): 7.5 nmole polymer; for increase of transfection efficiency of branched polymer compared to the linear H-K polymer: with liposomes and 0.75 μg DNA, optimal dose; for transfection efficiency / uptake of liposomes (sequence order comparison): polymer mixed with DNA then liposomes, cell line not stated
# Method: as §1
# [5] = system: tumor; assay: Intratumoral injection of branched polymer carrier of PCI-Luc, gene expression; format: in vivo; settings: injected intratumorally
# Text: FIG. 20. Comparison of the in vitro and in vivo transfection efficiencies of branched transport polymers having different lysine content. In contrast to in vitro experiments, local injection of a branched polymer with a lower lysine content enhanced transfection. A) In vitro comparison of HH-K4b and HHH-K4b as gene delivery carriers of PCI-Luc.
# In place of lysine or other cationic amino acids (e.g., ornithine and arginine), other amino acids may be substituted. The preferred amino acids to be substituted for lysines are hydrophilic amino acids such as asparagine or serine.
# [6] = system: MDA-MB-435 cells; assay: Uptake of polymer:fluorescein-labeled oligonucleotide complex, CytoFluor fluorescence; format: cell-based, human; settings: no liposomes; 0.75 μg 32-mer; 4 hour incubation, measured 24 hours later
# Method: Effect on uptake of a polymer:oligonucleotide complex: In a second experiment, the same amount of HK or HHK4b was mixed with 0.75 μg of a 5′-end fluorescein-labeled randomly generated oligonucleotide(32-mer) for 30 minutes. This complex was added to the MDA-MB-435 cells for 4 hour incubation. Twenty-four hours later, the cells were then washed, and measured by CytoFluor fluorescence Measurement System. (Millipore, Bedford, Miss.).
# [7] = system: MDA-MB-435 tumors in nude mice; assay: In vivo tumor growth after intratumoral injection of HH-K4b:oligonucleotide complexes (DNAzyme against VEGF receptor mRNA); settings: SEM in parentheses
# Method: In vivo delivery of pharmaceutical agents. […] In this example, the receptor of VEGF mRNA with a DNA oligonucleotide that has enzymatic activity (also called DNAzyme) (36) was targeted. The VEGF receptor is essential for tumor angiogenesis and consequently tumor growth. After breast cancer cells (MDA-MB-435 cells) were injected into nude mice and the tumors grew to a visible size, the tumor was injected with the therapeutic polymer-DNA complex. The tumor was injected every 5 days for a total of 5 injections. There were 4 treatment groups: 1) untreated, 2) HH-K4B carrier alone, 3) HH-K4b+DNAzyme, and 4) HH-K4b+antisense oligonucleotides. To prepare the complex for injection, 45 μg of the HH-K4b polymer diluted in 150 μl of water was mixed with 24 μg of oligonucleotide, also diluted in 150 μl of water. After formation of the complex for 2 hours, 25 μl of the treatment complex was injected into each tumor. The therapeutic oligonucleotide sequence is 5′-TGCTCTCCA-GGCTAGCTACAACGA-CCTGCACCT-3′ (SEQ ID NO:18) whereas the control antisense oligonucleotide sequence is 5′-TGCTCTCCA-GGCTATGTACAACGA-CCTGCACCT-3′. (SEQ ID NO:19) The only difference between the therapeutic DNAzyme sequence and the antisense sequences is that the nucleotides responsible for cleaving the mRNA have been altered with the antisense DNA.
# [8] = system: mice with 66.1 cell lung metastases; assay: Intravenous delivery of polymer:liposome:PCI-Luc, lung luciferase activity; format: in vivo; settings: complex with DOTAP/cholesterol liposomes, tumor laden mice, lungs six hours later
# Method: FIG. 19. Branched transport polymer in combination with liposomes enhanced transfection efficiency when administered intravenously. Two weeks prior to injection of complex, 1.0×10^5 of 66.1 cells (a murine breast cancer cell line) were injected into mice to establish lung metastases. 6 μg of HH-K4b (volume-60 μl) was mixed with 30 μg of PCI-Luc (volume-60 μl). After 40 min, 18 μg of liposomes (DOTAP:cholesterol, volume-60 μl) was added and gently mixed for another 30 min. Total volume of the polymer: liposome: DNA solution is 180 μl. 0.28 μl of 1 M Hepes was mixed with H-K or HH-K4b solution, respectively, to neutralize to approximately pH-7.0. Liposome in complex with PCI-Luc complexes were prepared similarly. 150 μl of the complex solution was injected via the tail vein into the mice. Six hours later, the lungs were homogenized and the luciferase activity was measured in each group.
# The liposomes were composed of DOTAP and cholesterol in a 1 to 1 molar ratio.
# [9] = system: MDA-MB-435 cells; assay: In vitro transfection with polymer:DNA complex in the absence of liposomes, luciferase activity; format: cell-based, human; settings: no liposomes
# Method: as §1
# Effect on transfection efficiency of a polymer:DNA complex: To determine the effect of branching on the transfection efficiency of a polymer:DNA complex, 7.5 nmol of H-K or 0.375 nmol of HH-K4b was mixed with PCI-Luc, and luciferase activity was measured as described above.
# HH-K4b and HHH-K4b, respectively, have a histidine to lysine ratio of 1.5 and 2.4, respectively. […] In vitro transfection experiments were performed on MDA-MB-435 cells as described previously in 6.2 and 6.4.3. For the formation of the complex, 3.75 μg of polymer was mixed with 0.75 μg of PCI-Luc, and experiments were performed in a 24-well plates.
# [10] = system: endothelial cells (BAEC); assay: In vitro transfection with polymer:liposome:DNA complexes, luciferase activity; format: cell-based, bovine
# Method: To further investigate the extent to which histidine order could affect transfection efficiency, four polymer solutions containing a different linear histidine copolymer (H-K (19-mer) (SEQ ID NO:3), HHH-K (20-mer) (SEQ ID NO:6), HH-K (20-mer) (SEQ ID NO:5), or K-HK (21-mer) (SEQ ID NO:9)) were mixed in amounts ranging from 0.125 μl to 2.5 μl with 0.75 μg DNA. The concentration of each of the polymer solutions was […]. After 30 minutes, 1.5 μg of liposomes were added. After adding the delivery compositions to endothelial cells (BAEC) for 4 hours, the cells were washed, and luciferase activity measured 48 hours later (FIG. 14).
compound,measurement,setting,value
CO/C1=C\C(C)=C\[C@@H](C)[C@@H](O)[C@@H](C)C/C(C)=C/C=C/[C@H](OC)[C@@H]([C@@H](C)[C@@H](O)[C@H](C)[C@@]2(O)C[C@@H](O)[C@H](C)[C@@H](C(C)C)O2)OC1=O [bafilomycin A1],effect of lysosomotropic agent on transfection of the H-K: liposome: PCI-Luc triplex,[1],significantly increased
same,effect of lysosomotropic agent on transfection of the H-K: liposome: PCI-Luc triplex,[2]; CHO cells,significantly increased
same,increase of transfection efficiency of the H-K: liposome: PCI-Luc triplex by lysosomotropic agent,"[2]; CHO cells, 10 ng/ml bafilomycin added with transfection agents",5 fold
same,effect of lysosomotropic agent on transfection efficiency of the liposome: PCI-Luc complex,[2]; absence of the histidine copolymer,did not enhance the transfection efficiency
CCN(CC)CCCC(C)Nc1ccnc2cc(Cl)ccc12 (stereo not shown) [chloroquine],effect of lysosomotropic agent on transfection of the H-K: liposome: PCI-Luc triplex,[1],significantly increased
same,effect of lysosomotropic agent on transfection of the H-K: liposome: PCI-Luc triplex,[2]; CHO cells,significantly increased
[Zn+2] [zinc],effect of added zinc on transfection efficiency of polymer:liposome:DNA complexes,[3],can enhance transfection efficiency
"H-R (19-mer): arginine-histidine copolymer, SEQ ID NO: 13 (RHRHRHRHRGRHRHRHRHR)",transfection efficiency compared to H-K (19-mer),[4],significantly better than H-K
"KHKHKHKHKGKHKHKHKHK-NH2 [H-K (19-mer), [K-H-K-H-K-H-K-H-K-G-K-H-K-H-K-H-K-H-K]]",morphologic evidence of cellular toxicity due to the polymer,[4]; even at concentrations of 0.5 mM,No morphologic evidence of cellular toxicity
"[K-H-H-H-K-H-H-H-K-H-H-H-K-H-H-H-K]4K3 (KHHHKHHHKHHHKHHHK; also: four copies on branched lysine core (K3)) [HHH-K4b, branched polymer on lysine core]",efficiency as carrier of nucleic acids compared to DOTAP liposomes or HH-K4b carrier,[5],much more efficient as a carrier of nucleic acids
[KHKHHKHHKHHKHHKHHKHK]4K3 [HH-K4b],uptake of oligonucleotides compared to linear HK polymer: oligonucleotides complex,[6],significantly enhanced uptake
same,"tumor volume, 1st Injection",[7]; measured before 1st injection (baseline),9.5 (1.1)
same,"tumor volume, 2nd Injection","[7]; measured before 2nd injection, intratumoral every 5 days",63.7 (10.7)
same,"tumor volume, 3rd Injection","[7]; measured before 3rd injection, intratumoral every 5 days",134 (30)
same,"tumor volume, 4th Injection","[7]; measured before 4th injection, intratumoral every 5 days",236 (55)
same,"tumor volume, 5th Injection","[7]; measured before 5th injection, intratumoral every 5 days",429 (94)
same,gene (luciferase) expression compared to liposomes only,[8],7 fold
same,in vitro transfection compared to HHH-K4b,"[9]; 3.75 μg polymer, 0.75 μg PCI-Luc",significantly more effective transfection agent in vitro
same,transfection efficiency of polymer:DNA complex compared to linear H-K polymer,[9]; 0.375 nmol HH-K4b vs 7.5 nmol H-K,better
same,"luciferase expression as sole carrier of DNA compared to HH-K3b, HH-K2b and H-K4b",[9]; data not shown,better at enhancing luciferase expression
[K-H-K-H-K-H-K-G-K-H-K-H-K] (KHKHKHKGKHKHK) [H-K (13 mer)],"transfection efficiency of the liposome: PCI-Luc complex, polymer vs no polymer (length comparison)",[4],increased the transfection efficiency
[KHKHKHKHKGKHKHKHKHKGKHKHKHKHK] (KHKHKHKHKGKHKHKHKHKGKHKHKHKHK) [H-K (29 mer)],"transfection efficiency of the liposome: PCI-Luc complex, polymer vs no polymer (length comparison)",[4],increased the transfection efficiency
same,transfection efficiency compared to the 13 mer,[4]; 7.5 nmole polymer with liposome and DNA,increased transfection efficiency more than the 13 mer
[K-H-K-H-K-H-K-H-K-G-K-H-K-H-K-H-K-H-K]2 K [H-K2b],increase of transfection efficiency of branched polymer compared to the linear H-K polymer,[4]; absence of serum,approximately 10 fold
same,transport of DNA into cells (luciferase) relative to PEI,"[4]; presence or absence of serum, H-K2b 0.25 μg + DNA 0.75 μg + liposomes 1.5 μg vs PEI 0.5 μg",more than 10 fold
[K-H-K-H-K-H-K-H-K-G-K-H-K-H-K-H-K-H-K]3 K2 [H-K3b],increase of transfection efficiency of branched polymer compared to the linear H-K polymer,[4]; absence of serum,approximately 10 fold
[K-H-K-H-K-H-K-H-K-G-K-H-K-H-K-H-K-H-K]4 K3 [H-K4b],increase of transfection efficiency of branched polymer compared to the linear H-K polymer,[4]; absence of serum,approximately 10 fold
[KKHHHKHHHKKHHHKHHHKK] (KKHHHKHHHKKHHHKHHHKK) [HHH-K],"transfection of DNA in combination with liposomes, rank among four polymers",[10]; highest concentration of polymer used,most effective of the four
same,"transfection of DNA in combination with liposomes, rank among four polymers",[10]; lower concentrations of polymer,not as effective as the other three polymers tested
"[K-K-K-K-K-K-K-K-K-G-K-K-K-K-K-K-K-K-K] (KKKKKKKKKGKKKKKKKKK) [poly-L-lysine, reference compound]",effect of serum on transfection efficiency of polymer:liposome carrier,[4]; presence vs absence of 10% serum,markedly decreased in the presence of serum
[K-S-K-S-K-S-K-S-K-G-K-S-K-S-K-S-K-S-K] (KSKSKSKSKGKSKSKSKSK) [S-K (19-mer)],transfection efficiency compared to no polymer,"[4]; absence of serum, with liposome: PCI-Luc",enhanced the transfection efficiency slightly more than when no polymer was added
same,transfection efficiency compared to H-K (19-mer),[4],significantly less effective
[YGRKKRRQRRRGKHKHKHKHKHKHKHKHK] (YGRKKRRQRRRGKHKHKHKHKHKHKHKHK) [Y-HK],transfection efficiency / uptake of liposomes (sequence order comparison),[4]; presence or absence of serum,accelerated useful transfection efficiency
[YGRKKRRQRRRHHKHHKHHKHHKHHK] (YGRKKRRQRRRHHKHHKHHKHHKHHK) [Y-HH],transfection efficiency / uptake of liposomes (sequence order comparison),[4]; presence or absence of serum,significantly enhanced the uptake of liposomes
